{"source": "patent EP0041021A2", "about": "“Cyclopropane carboxylic acid derivatives, their preparation, their use against parasites in plants and animals, their compositions and their intermediates” (ROUSSEL-UCLAF, priority 1980, dated 1981)", "key": {"moustiques Culex pipiens": {"test_system": "moustiques Culex pipiens", "test": "Insecticidal activity on Culex pipiens mosquitoes, fumigant coil", "format": "in vivo", "conditions": "fumigant coil, 0,60% active ingredient by weight of coil", "method": "Exemple 6 : Etude de l'activité insecticide. sur moustiques Culex pipiens, du composé ce l'exemple 1 utilisé sous forme de serpentin fumigène.\nDes supports neutres de serpentins fumigènes sont imprégnés de matière active en solution dans l'acétone. On lâche dans un cylindre fermé, en verre, de 13,50 dm3, 20 moustiques femelles agées de 4 à 5 jours et intrcduit, pendant 2 minutes, un serpentin fumigène se consumant à une extrémité. On effectue le contrôle de knock-down toutes les minutes et arrête 1.essai 5 minutes après que tous les insectes aient été abattus."}, "mouche domestique": {"test_system": "mouche domestique", "test": "Knock-down activity on housefly, direct spray in Kearns and March cylinder", "format": "in vivo", "conditions": "acetone (5%) + Isopar L", "method": "Exemple 4 : Etude de l'activité de choc sur mouche domestique.\nLes insectes tests sont des mouches domestiques femelles âgées de 4 à 5 jours. On opère par pulvérisation directe en cylindre de Kearns et March en utilisant comme solvant un mélange d'acétone (5%) et d'Isopar L (solvant pétrolier) (quantité de solvant utilisée 2 ml en une seconde). On utilise 50 insectes par dose. On effectue les contrôles toutes les minutes jusqu'à 10 minutes, puis à 15 minutes et l'on détermine le KT 50 par les méthodes habituelles."}}, "data": [{"smiles": "C=CCC1=C(C)[C@@H](OC(=O)[C@@H]2[C@H](/C=C\\C(=O)OC)C2(C)C)CC1=O", "note": "[Exemple 1, (R cis ΔZ) 2,2-diméthl-3/ 3-méthoxy-oxo-1-propenyl/cyclopropane carboxylatede (1S) 2-méthyl-4-oxo 3-(2-propenyl)-2-cyclopenten-1-yle]", "values": [{"measurement": "effet létal", "setting": "moustiques Culex pipiens", "value": "98,3%"}, {"measurement": "ET 50", "setting": "moustiques Culex pipiens; 20 female mosquitoes, 13,50 dm3 cylinder", "value": "5,42 mn"}, {"measurement": "KT 50", "setting": "mouche domestique; concentration 0,5 g/litre", "value": "1,26 mn"}, {"measurement": "KT 50", "setting": "mouche domestique; concentration 0,25 g/litre", "value": "2,02 mn"}]}]}
